Earlier results as cited in patent publication US8257918B2, “Intelligent nanomedicine integrating diagnosis and therapy” (The Regents of the University of California, priority 2004, dated 2012).

Legend:
tumor = conditions: comparison with doxorubicin

COc1cccc2c1C(=O)c1c(O)c3c(c(O)c1C2=O)C[C@@](O)(C(=O)CO)C[C@@H]3O[C@H]1C[C@H](NC(=O)[C@@H](N)CC(C)C)[C@H](O)[C@H](C)O1 [Leu-Dox, N-1-leucyl-doxorubucin]
anti-tumor efficiency relative to doxorubicin (tumor): more efficient anti-tumor agents than doxorubicin

COc1cccc2c1C(=O)c1c(O)c3c(c(O)c1C2=O)C[C@@](O)(C(=O)CO)C[C@@H]3O[C@H]1C[C@H](N)[C@H](O)[C@H](C)O1 [doxorubicin]
cumulative doses that engender a substantial risk of cardiotoxicity: exceed 550 mg/m^2
